Results: patent publication US10987377B2, “Use of inhaled gaseous nitric oxide as a mucolytic agent or expectorant” (Advanced Inhalation Therapies (AIT), Ltd., priority 2004, dated 2021)
Several values for one entry are separate records, joined by “and”; a condition that tells them apart may be missing. Equal values may be shown once.

How the values were obtained:
[1] = system: Thoroughbred racehorses with excessive mucus production; experiment: Example 1: inhaled gaseous NO in Thoroughbred racehorses with excessive mucus, endoscopic mucus scoring; type: in vivo, equine; set-up: key to Mucus status: NG = No change in status; conditions: for Side effects: equine study, inhaled administration
Excerpt: Six (6) Thoroughbred racehorses at a major racing jurisdiction were quarantined for two weeks, and each horse had evidence of excessive mucus production as surveyed by clinical presentation and by endoscopic exam. The horses were isolated from each other and were being medicated daily in series with several broad-spectrum antimicrobials routinely employed for respiratory infections in Equids. The results before the administration with gaseous NO had been unremarkable. […] All six horses were included in the study using gaseous NO.
The horses were brought individually to the veterinary hospital barn for further evaluation over the course of five days. An fiberoptic endoscope was passed to the level of the bifurcation of the trachea (carina-airway) with images recorded on videotape. A scoring system was used to indicate the presence or absence of mucus, as well as its severity, if present. This scoring system has been described by Dixon et. al., “Equine Pulmonary Disease: Ancillary Diagnostic Findings,” Equine Vet. Journal 27, 428-435, 1995, herein incorporated by reference in its entirety. A score of zero indicates the absence of mucus, while a score of 1 to 5 indicates increasing amounts of mucus observed endoscopically in the trachea. The attending Veterinarian conducting the examination did the scoring. All of the six horses scored 4 or higher before the initiation of the treatments.
Treatment intervention of inhaled gaseous Nitric Oxide was administered to all six horses during a five-day period. Five of the horses (#2-#6) received 100 breaths of 10,000 ppm resulting in, based on pulmonary mechanics, a lung concentration of approximately 160 ppm. Horse #1 received 100 breaths of 5000 ppm resulting in 80 ppm on Day #1 and a second administration of 100 breaths of 10,000 ppm on Day #5. Horse #5 received 100 breaths of 10,000 ppm on Day #3 and a second administration of 100 breaths of 10,000 ppm on Day #4.
An outline of the treatment results is provided below in Table No. 1 (with scores when available). […] On a day where a measurement and a treatment occur, such as Day #4 for Horse #5, the measurement was taken before the administration of the second dosage.

[2] = system: Standardbred horses with excessive mucus accumulation; experiment: Example 2: inhalant Nitric Oxide gas in Standardbred horses with excessive mucus accumulation, post race endoscopic mucus score; type: in vivo, equine; set-up: key to Decrease in Mucus Score: Dixon score: 0 = no mucus, 1-5 = increasing mucus; pre minus post
Excerpt: Twenty-seven Standardbred horses were referred to this study with a history of poor performance and with evidence of excessive mucus accumulation as surveyed by endoscopic exam. This was a single site population study and the subjects served as their own control.
Horses were examined pretreatment by videoendocscopy on a minimum of two consecutive occasions post race, one week or longer between scopings, to document the degree and persistence of mucus residence. The endoscope was passed to the level of the bifurcation of the trachea (carina) with images logged on a video recorder. The Dixon et al. scoring system was used to indicate the presence or absence of mucus, as well as its severity, if present. Zero indicates absence of mucus, and 1 to 5 indicating increasing amounts of mucus observed endoscopically in the trachea. Scoring was done by the veterinarian conducting the examination, then later by another “blinded” individual using the recorded examination.
Treatment via a metered delivery device was provided that included a source of nitric oxide from a pressurized gas cylinder and a delivery interface with the subject's nare. The Nitric Oxide delivery device is enabled by a microprocessor-based computer (Pulmonox Medical Inc, Tofield, Alberta, Canada) wherein a proportionate flow rate of Nitric Oxide gas is delivered based on the horse's tidal volume/minute ventilation with a resulting airway/pulmonary concentration of 160-200 ppm.
Upon enrollment in the study a candidate for the treatment intervention was administered 100 breathes of NO gas as previously described for a minimum of three days. A follow up endoscopic exam on the next available immediate post race was performed and a mucus score assigned. Post race endoscopic exams were continued for several events as a measurable outcome. Depending on the results (i.e. no change or a graded increase in mucus scores) multiple treatment cycles were continued and the results recorded via post race endoscopic exam over the next of several weeks.

bovine = experiment: Preliminary experiments with bovine, mucus hydrolyzed and excreted from the nares; type: in vivo
Excerpt: Thus, the Applicants believe that inhaled gaseous NO as an effective treatment to excess mucus accumulation in the airways of mammals.

healthy bovine = experiment: Preliminary experiments with healthy bovine, prevention of mucus accumulation; type: in vivo; conditions: inhaled
Excerpt: Additionally, inhaled nitric oxide containing gas may act as a preventative measure in the accumulation of mucus in the airways. […] Such a risk may be associated with recent infection and/or contact with other infected mammals. […] The delivery of inhaled nitric oxide containing gas may be administered to these risk mammals in order to prevent mucus accumulation in the airway. Effective therapeutic amounts may also refer to an amount sufficient to break down the viscoelastic mucus and increase mucociliary transport in the mammal's airway and to increase MMC in the mammal. Therefore, treating mucus accumulation in the airways of a mammal comprises reducing mucus accumulation, preventing mucus accumulation, reducing mucociliary dyskinesia, and/or preventing mucociliary dyskinesia.

SMILES: [N]=O [gNO, Nitric Oxide]
- Mucus score (endoscopic, 0-5) ([1]; Horse #1, Day #2, Tx 100 breaths at 5000 ppm on Day #1): Clear (0)
- Return of the previous amount of mucus (amount before administration of gNO), not scored ([1]; Horse #1, Day #3, Tx 100 breaths at 5000 ppm on Day #1): 25% rtn.
- Mucus status ([1]; Horse #1, Day #4, Tx 100 breaths at 5000 ppm on Day #1): NG
- Mucus status ([1]; Horse #1, Day #5, before second Tx (10,000 ppm), Tx 5000 ppm on Day #1): NG, Tx 10k
- Mucus score (endoscopic, 0-5) ([1]; Horse #1, Day #6, Tx 5000 ppm Day #1 and Tx 100 breaths at 10,000 ppm Day #5): Trace (1)
- Mucus score (endoscopic, 0-5) ([1]; Horse #2, Day #2, Tx 100 breaths at 10,000 ppm on Day #1): Clear (0)
- Return of the previous amount of mucus (amount before administration of gNO), not scored ([1]; Horse #2, Day #3, Tx 100 breaths at 10,000 ppm on Day #1): 25% rtn.
- Mucus status ([1]; Horse #2, Day #4, Tx 100 breaths at 10,000 ppm on Day #1): NG
- Mucus status ([1]; Horse #2, Day #5, Tx 100 breaths at 10,000 ppm on Day #1): NG
- Mucus score (endoscopic, 0-5) ([1]; Horse #3, Day #3, Tx 100 breaths at 10,000 ppm on Day #2): Clear (0)
- Mucus status ([1]; Horse #3, Day #4, Tx 100 breaths at 10,000 ppm on Day #2): NG
- Mucus score (endoscopic, 0-5) ([1]; Horse #3, Day #5, Tx 100 breaths at 10,000 ppm on Day #2): Trace (2)
- Mucus score (endoscopic, 0-5) ([1]; Horse #4, Day #4, Tx 100 breaths at 10,000 ppm on Day #3): Clear (0)
- Return of the previous amount of mucus (amount before administration of gNO), not scored ([1]; Horse #4, Day #5, Tx 100 breaths at 10,000 ppm on Day #3): 25% rtn.
- Mucus score (endoscopic, 0-5) ([1]; Horse #5, Day #4, before second dosage, Tx 100 breaths at 10,000 ppm on Day #3): Clear (0),
- Mucus score (endoscopic, 0-5) ([1]; Horse #5, Day #5, Tx 100 breaths at 10,000 ppm on Day #3 and Day #4): Trace (2)
- Mucus score (endoscopic, 0-5) ([1]; Horse #5, Day #6, Tx 100 breaths at 10,000 ppm on Day #3 and Day #4): Trace (1)
- Mucus score (endoscopic, 0-5) ([1]; Horse #6, Day #6, Tx 100 breaths at 10,000 ppm on Day #5): Trace (2)
- Reduction in mucus from Day #1 ([1]; Horses #2 and #4 (25% of the mucus returned, not scored)): 75%
- Side effects [1]: did not result in any irritation, inflammation or abnormal side effects
- Side effects ([1]; listed as inhaled NO): no untoward side effects were observed
- Observation immediately following administration ([1]; horses, inhaled): non-viscous liquids started to flow out of the nares of the horses
- Time until non-viscous liquids start to flow out of the nares ([1]; six equine with excessive mucus accumulation, after inhalation): 10 to 30 min
- Reduction of mucus ([1]; six equine, all subjects): reductions of mucus to trace levels in all subjects
- Response to additional treatment cycles ([2]; horses with recurrence to scores of 2 or more in the weeks following the first treatment): repeatable marked reduction in mucus scores following treatment
- Post-Mucus Score (after administering gNO) ([2]; individual horses 1-27, 100 breaths for a minimum of three days, airway concentration 160-200 ppm, post race endoscopy, Dixon scale 0-5): 2 (6×) and 0 (7×) and 3 (2×) and 4 (2×) and 1 (4×) and 1.5 (2×) and 2.5 (4×)
- Decrease in Mucus Score ([2]; individual horses 1-27, pre-score minus post-score, 100 breaths for a minimum of three days, 160-200 ppm): .5 (7×) and 1 (5×) and 2.5 (2×) and 3 (3×) and 3.5 (2×) and 2 (5×) and 1.5 and 0
- Number of horses with decrease in score by at least 0.5 ([2]; of twenty-seven, Dixon et al. scale): Twenty five
- Number of horses with score reduction of at least 1 ([2]; of twenty-seven, after a single treatment cycle): Eighteen
- Number of subjects with decrease in mucus score from 2 to 3.5 ([2]; of twenty-seven, single or multiple treatments, transient reduction): Twelve
- Improvement in mucus scores post treatment ([2]; twenty-seven horses enrolled): all but two showed significant improvement in their mucus scores
- Time until mucus is hydrolyzed and excreted from the nares (bovine): 10 to 30 min
- Prevention of mucus accumulation (healthy bovine): results in the prevention of mucus accumulation
